Assay results: US6914045B2, “Glycopeptide antibiotics” (Wyeth Holdings Corporation, priority 2001, dated 2005)
≈ marks a conversion by molar mass, not a printed value.

What was measured:
Assay in all cases: in vitro antibacterial evaluation, MIC by broth dilution
Type in all cases: cell-based
Staphylococcus sp. = conditions: broth dilution, 18 hours at 35° C.; for MIC Staphylococcus aureus (GC 1131): strain GC 1131
Procedure, shortened: (§1)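 Following National Committee for Clinical Laboratory Standards recommendations (M7-A2), susceptibility was measured by dilution in Muller-Hinton II […]. Bacteria were seeded at 5×10^5 CFU/mL against compound concentrations from 64 down to 0.06 μg/mL.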

Escherichia coli = tested on: Escherichia coli
Procedure, shortened: as §1

Enterococcus sp. = conditions: broth dilution, 18 hours at 35° C.
Procedure, shortened: as §1

Streptococcus sp. = conditions: broth dilution, 18 hours at 35° C.
Procedure, shortened: as §1

MIC Staphylococcus aureus (GC 1131) (Staphylococcus sp.; inoculum 5×10^5 CFU/mL): 16 µg/mL (≈ 11 µM) | MIC Staphylococcus aureus (ATCC 29213) (Staphylococcus sp.; strain ATCC 29213): 16 µg/mL (≈ 11 µM) | MIC Staphylococcus aureus (GC 1131) (Staphylococcus sp.): 16 µg/mL (≈ 11 µM) | MIC Staphylococcus aureus (GC 3051) (Staphylococcus sp.; strain GC 3051): 16 µg/mL (≈ 11 µM) | MIC Staphylococcus aureus (GC 3053) (Staphylococcus sp.; strain GC 3053): 32 µg/mL (≈ 22 µM) | MIC Staphylococcus aureus (GC 4541) (Staphylococcus sp.; strain GC 4541): 16 µg/mL (≈ 11 µM) | MIC Staphylococcus aureus (GC 4542) (Staphylococcus sp.; strain GC 4542): 16 µg/mL (≈ 11 µM) | MIC Staphylococcus aureus-SMITH (GC 4543) (Staphylococcus sp.; strain GC 4543): 8 µg/mL (≈ 5.49 µM) | MIC Staphylococcus aureus (GC 4544) (Staphylococcus sp.; strain GC 4544): 16 µg/mL (≈ 11 µM) | MIC Staphylococcus aureus (GC 4545) (Staphylococcus sp.; strain GC 4545): 8 µg/mL (≈ 5.49 µM) | MIC Coagulase Negative Staphylococcus (GC 4547) (Staphylococcus sp.; strain GC 4547): 8 µg/mL (≈ 5.49 µM) | MIC Coagulase Negative Staphylococcus (GC 4548) (Staphylococcus sp.; strain GC 4548): 8 µg/mL (≈ 5.49 µM) | MIC Coagulase Negative Staphylococcus (GC 4549) (Staphylococcus sp.; strain GC 4549): 8 µg/mL (≈ 5.49 µM) | MIC Coagulase Negative Staphylococcus (GC 4551) (Staphylococcus sp.; strain GC 4551): 16 µg/mL (≈ 11 µM) | MIC Coagulase Negative Staphylococcus (GC 6257) (Staphylococcus sp.; strain GC 6257): 8 µg/mL (≈ 5.49 µM) | MIC Staphylococcus aureus-SMITH (GC 4543) (Staphylococcus sp.; strain SMITH GC 4543): 8 µg/mL (≈ 5.49 µM) | MIC Escherichia coli (ATCC 25922) (Escherichia coli; strain ATCC 25922, 18 hours at 35° C.): >64 µg/mL | MIC Escherichia coli (GC 4559) (Escherichia coli; strain GC 4559, 18 hours at 35° C.): >64 µg/mL | MIC Escherichia coli (GC 4560) (Escherichia coli; strain GC 4560, 18 hours at 35° C.): 8 µg/mL (≈ 5.49 µM) | MIC Enterococcus avium (GC 4558) (Enterococcus sp.; Enterococcus avium (GC 4558)): 32 µg/mL (≈ 22 µM) | MIC Enterococcus faecalis (ATCC 29212) (Enterococcus sp.; Enterococcus faecalis (ATCC 29212)): 32 µg/mL (≈ 22 µM) | MIC Enterococcus faecalis (GC 2242) (Enterococcus sp.; Enterococcus faecalis (GC 2242)): 32 µg/mL (≈ 22 µM) | MIC Enterococcus faecalis (GC 2691) (Enterococcus sp.; Enterococcus faecalis (GC 2691)): 32 µg/mL (≈ 22 µM) | MIC Enterococcus faecalis (GC 3059) (Enterococcus sp.; Enterococcus faecalis (GC 3059)): 32 µg/mL (≈ 22 µM) | MIC Enterococcus faecalis (GC 4552) (Enterococcus sp.; Enterococcus faecalis (GC 4552)): 32 µg/mL (≈ 22 µM) | MIC Enterococcus faecalis (GC 4553) (Enterococcus sp.; Enterococcus faecalis (GC 4553)): 64 µg/mL (≈ 43.9 µM) | MIC Enterococcus faecalis (GC 4554) (Enterococcus sp.; Enterococcus faecalis (GC 4554)): 32 µg/mL (≈ 22 µM) | MIC Enterococcus faecalis (GC 6189) (Enterococcus sp.; Enterococcus faecalis (GC 6189)): 32 µg/mL (≈ 22 µM) | MIC Enterococcus faecium (GC 2243) (Enterococcus sp.; Enterococcus faecium (GC 2243)): 32 µg/mL (≈ 22 µM) | MIC Enterococcus faecium (GC 4556) (Enterococcus sp.; Enterococcus faecium (GC 4556)): 32 µg/mL (≈ 22 µM) | MIC Enterococcus faecium (GC 4557) (Enterococcus sp.; Enterococcus faecium (GC 4557)): 16 µg/mL (≈ 11 µM) | MIC Enterococcus faecalis (ATCC 29212) (Enterococcus sp.; strain ATCC 29212): 32 µg/mL (≈ 22 µM) | MIC Enterococcus faecalis (GC 2242) (Enterococcus sp.; strain GC 2242): 32 µg/mL (≈ 22 µM) | MIC Enterococcus faecium (GC 2243) (Enterococcus sp.; strain GC 2243): 32 µg/mL (≈ 22 µM) | MIC Enterococcus faecalis (GC 2691) (Enterococcus sp.; strain GC 2691): 32 µg/mL (≈ 22 µM) | MIC Enterococcus faecalis (GC 3059) (Enterococcus sp.; strain GC 3059): 32 µg/mL (≈ 22 µM) | MIC Enterococcus faecalis (GC 4552) (Enterococcus sp.; strain GC 4552): 32 µg/mL (≈ 22 µM) | MIC Enterococcus faecalis (GC 4553) (Enterococcus sp.; strain GC 4553): 64 µg/mL (≈ 43.9 µM) | MIC Enterococcus faecalis (GC 4554) (Enterococcus sp.; strain GC 4554): 32 µg/mL (≈ 22 µM) | MIC Enterococcus faecium (GC 4556) (Enterococcus sp.; strain GC 4556): 32 µg/mL (≈ 22 µM) | MIC Enterococcus faecium (GC 4557) (Enterococcus sp.; strain GC 4557): 16 µg/mL (≈ 11 µM) | MIC Enterococcus avium (GC 4558) (Enterococcus sp.; strain GC 4558): 32 µg/mL (≈ 22 µM) | MIC Enterococcus faecalis (GC 6189) (Enterococcus sp.; strain GC 6189): 32 µg/mL (≈ 22 µM) | MIC Streptococcus agalactiae (GC 4564) (Streptococcus sp.; Streptococcus agalactiae (GC 4564)): 8 µg/mL (≈ 5.49 µM) | MIC Streptococcus pneumoniae (ATCC 6301) (Streptococcus sp.; Streptococcus pneumoniae (ATCC 6301)): 2 µg/mL (≈ 1.37 µM) | MIC Streptococcus pneumoniae (GC 1894) (Streptococcus sp.; Streptococcus pneumoniae (GC 1894)): 0.5 µg/mL (≈ 0.343 µM) | MIC Streptococcus pneumoniae (GC 4565) (Streptococcus sp.; Streptococcus pneumoniae (GC 4565)): 2 µg/mL (≈ 1.37 µM) | MIC Streptococcus pyogenes (GC 4563) (Streptococcus sp.; Streptococcus pyogenes (GC 4563)): 4 µg/mL (≈ 2.74 µM) | MIC Streptococcus pneumoniae (ATCC 6301) (Streptococcus sp.; strain ATCC 6301): 2 µg/mL (≈ 1.37 µM) | MIC Streptococcus pneumoniae (GC 1894) (Streptococcus sp.; strain GC 1894): 0.5 µg/mL (≈ 0.343 µM) | MIC Streptococcus pyogenes (GC 4563) (Streptococcus sp.; strain GC 4563): 4 µg/mL (≈ 2.74 µM) | MIC Streptococcus agalactiae (GC 4564) (Streptococcus sp.; strain GC 4564): 8 µg/mL (≈ 5.49 µM) | MIC Streptococcus pneumoniae (GC 4565) (Streptococcus sp.; strain GC 4565): 2 µg/mL (≈ 1.37 µM)
Compound: CCOc1cc(C2OCC3OC(OC4C(CO)OC(Oc5ccc(CC6NC(=O)C(C(C)c7ccccc7)NC(=O)CNC(=O)C(CO)NC(=O)C(C(O)C7CNC(=N)N7C7OC(CO)C(O)C(O)C7O)NC(=O)C(C(O)C7CNC(=N)N7)NC6=O)cc5)C(O)C4O)C(O)C(O)C3O2)ccc1OC (stereo not drawn) [Example 152]
MIC Staphylococcus haemolyticus (GC 4546) (Staphylococcus sp.; strain GC 4546): 8 µg/mL (≈ 5.49 µM)
